# Legend:
# RXF 393 = experiment: NCI anticancer screen, RXF 393; format: cell-based, human; conditions: RXF 393, Renal, 48 h
# UACC-62 = experiment: NCI anticancer screen, UACC-62; format: cell-based, human; conditions: UACC-62, Melanoma, 48 h
# MDA-MB-435 = experiment: NCI anticancer screen, MDA-MB-435; format: cell-based, human; conditions: MDA-MB-435, Breast, 48 h
# SK-MEL-2 = experiment: NCI anticancer screen, SK-MEL-2; format: cell-based, human; conditions: SK-MEL-2, Melanoma, 48 h
# ACHN = experiment: NCI anticancer screen, ACHN; format: cell-based, human; conditions: Renal, 48 h
# MDA-MB-231/ATCC = experiment: NCI anticancer screen, MDA-MB-231/ATCC; format: cell-based, human; conditions: Breast, 48 h
# T-47D = experiment: NCI anticancer screen, T-47D; format: cell-based, human; conditions: Breast, 48 h
# NCI-H226 = experiment: NCI anticancer screen, NCI-H226; format: cell-based, human; conditions: NCI-H226, Non-Small Cell Lung, 48 h
# TK-10 = experiment: NCI anticancer screen, TK-10; format: cell-based, human; conditions: TK-10, Renal, 48 h
# U251 = experiment: NCI anticancer screen, U251; format: cell-based, human; conditions: U251, CNS, 48 h
# HL-60(TB) = experiment: NCI anticancer screen, HL-60(TB); format: cell-based, human; conditions: Leukemia, 48 h
# LOX IMVI = experiment: NCI anticancer screen, LOX IMVI; format: cell-based, human; conditions: Melanoma, 48 h
# wildtype human PAI-1 = target: T1, wildtype human PAI-1 (Homo sapiens, UniProt P05121); experiment: PAI-1/uPA assay (residual uPA activity, fluorescent substrate SpectroFluor); format: biochemical
# T1 construct: purchased Molecular Innovations Lot# HWT-804
# In short: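 Wildtype human PAI-1 (6 nM) preincubated 15-20 min at RT with compound (10 nM to 100 μM final) in HEPES buffer pH 6.6, then with uPA (8 nM, HMW) 5 min. SpectroFluor (0.1 mM) cleavage followed 30 min at 37 °C (ex 360/em 440 nm); PAI-1 activity expressed as % of untreated PAI-1.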
# SF-295 = experiment: NCI anticancer screen, SF-295; format: cell-based, human; conditions: SF-295, CNS, 48 h
# SK-MEL-5 = experiment: NCI anticancer screen, SK-MEL-5; format: cell-based, human; conditions: SK-MEL-5, Melanoma, 48 h
# EKVX = experiment: NCI anticancer screen, EKVX; format: cell-based, human; conditions: Non-Small Cell Lung, 48 h
# [1] = system: 60 different human cancer cell lines; experiment: NCI in vitro anticancer screen (whole panel); format: cell-based; conditions: for growth and proliferation of human primary cancer cell-lines (in words): NCI screen, 48 h
# DU-145 = experiment: NCI anticancer screen, DU-145; format: cell-based, human; conditions: DU-145, Prostate, 48 h
# SK-MEL-28 = experiment: NCI anticancer screen, SK-MEL-28; format: cell-based, human; conditions: SK-MEL-28, Melanoma, 48 h
# HCT-116 = experiment: NCI anticancer screen, HCT-116; format: cell-based, human; conditions: HCT-116, Colon, 48 h
# NCI-H23 = experiment: NCI anticancer screen, NCI-H23; format: cell-based, human; conditions: NCI-H23, Non-Small Cell Lung, 48 h
# SF-539 = experiment: NCI anticancer screen, SF-539; format: cell-based, human; conditions: SF-539, CNS, 48 h
# COLO 205 = experiment: NCI anticancer screen, COLO 205; format: cell-based, human; conditions: COLO 205, Colon, 48 h
# [2] = Homo sapiens, read-out: LC50 (the source's name)
# T1 sequence (P05121 24-402): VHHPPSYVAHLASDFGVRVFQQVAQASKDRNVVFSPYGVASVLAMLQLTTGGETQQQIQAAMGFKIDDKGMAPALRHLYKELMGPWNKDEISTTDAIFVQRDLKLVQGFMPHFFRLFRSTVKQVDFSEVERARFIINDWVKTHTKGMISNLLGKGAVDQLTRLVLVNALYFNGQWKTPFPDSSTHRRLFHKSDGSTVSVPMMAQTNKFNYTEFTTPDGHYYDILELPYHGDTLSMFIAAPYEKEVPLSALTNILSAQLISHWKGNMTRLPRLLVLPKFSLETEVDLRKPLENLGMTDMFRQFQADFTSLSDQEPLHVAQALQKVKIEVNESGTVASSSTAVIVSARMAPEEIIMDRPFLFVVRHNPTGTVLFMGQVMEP
structure (smiles),measurement,setting,value
CCOC(=O)c1ccc(CNCc2cc(CN3CCN(c4ccccn4)CC3)c(O)c(OC)c2)cc1 [Compound Q012135T],GI50,RXF 393; Homo sapiens,18.8 µM
same,CC50,RXF 393; [2],84.5 µM
same,TGI,RXF 393,39.9 µM
same,GI50,UACC-62; Homo sapiens,20.1 µM
same,CC50,UACC-62; [2],72.4 µM
same,TGI,UACC-62,38.2 µM
same,GI50,MDA-MB-435; Homo sapiens,16.9 µM
same,CC50,MDA-MB-435; [2],87.1 µM
same,TGI,MDA-MB-435,38.4 µM
same,GI50,SK-MEL-2; Homo sapiens,17.2 µM
same,CC50,SK-MEL-2; [2],79.5 µM
same,TGI,SK-MEL-2,36.9 µM
same,GI50,ACHN; Homo sapiens,29.9 µM
same,CC50,ACHN; [2],> 100 µM
same,TGI,ACHN,>100 µM
same,TGI,MDA-MB-231/ATCC,38.1 µM
same,GI50,MDA-MB-231/ATCC; Homo sapiens,18.1 µM
same,CC50,MDA-MB-231/ATCC; [2],80.5 µM
same,TGI,T-47D,49.2 µM
same,GI50,"T-47D; Homo sapiens, T47D",14.7 µM
same,CC50,"T-47D; Homo sapiens, T47D, read-out: LC50 (the source's name)",> 100 µM
same,GI50,NCI-H226; Homo sapiens,19.8 µM
same,LC50 (concentration giving 50% net cell kill),NCI-H226; Homo sapiens,91.5 µM
same,TGI,NCI-H226,42.6 µM
same,GI50,TK-10; Homo sapiens,20.6 µM
same,CC50,TK-10; [2],> 100 µM
same,TGI,TK-10,46.3 µM
same,GI50,"U251; Homo sapiens, U-251",15.8 µM
same,CC50,"U251; Homo sapiens, U-251, read-out: LC50 (the source's name)",65.7 µM
same,TGI,U251,32.2 µM
same,GI50,HL-60(TB); Homo sapiens,13.1 µM
same,CC50,HL-60(TB); [2],13.1 µM
same,TGI,HL-60(TB),33.7 µM
same,GI50,LOX IMVI; Homo sapiens,15.8 µM
same,LC50 (concentration giving 50% net cell kill),LOX IMVI; Homo sapiens,63.4 µM
same,TGI,LOX IMVI,31.7 µM
same,Percent PAI-1 inhibition,"wildtype human PAI-1; at the concentration given, percent of activity of untreated PAI-1",8
same,Conc. of compound required for PAI-1 inhibition,"wildtype human PAI-1; concentration giving the percent inhibition, 6 nM PAI-1, 8 nM uPA",100 µM
same,GI50,SF-295; Homo sapiens,19.6 µM
same,CC50,SF-295; [2],73.5 µM
same,TGI,SF-295,38.0 µM
same,GI50,SK-MEL-5; Homo sapiens,12.9 µM
same,CC50,SK-MEL-5; [2],51.8 µM
same,TGI,SK-MEL-5,25.8 µM
same,GI50,EKVX; Homo sapiens,21.3 µM
same,CC50,EKVX; [2],> 100 µM
same,TGI,EKVX,62.1 µM
same,growth and proliferation of human primary cancer cell-lines (in words),[1],inhibited growth and proliferation
same,cytostatic / cytotoxic effects on human cancer cell-lines (in words),"[1]; low micromolar concentrations, leukemia, melanoma, colon and central nervous system cell-lines",cytostatic and cytotoxic effects
same,TGI,DU-145,36.5 µM
same,GI50,DU-145; Homo sapiens,17 µM
same,CC50,DU-145; [2],78.4 µM
same,GI50,SK-MEL-28; Homo sapiens,15.1 µM
same,CC50,SK-MEL-28; [2],57.4 µM
same,TGI,SK-MEL-28,29.5 µM
same,TGI,HCT-116,>100 µM
same,GI50,HCT-116; Homo sapiens,18.6 µM
same,LC50 (50% lethal concentration),HCT-116; Homo sapiens,> 100 µM
same,GI50,NCI-H23; Homo sapiens,34.2 µM
same,CC50,NCI-H23; [2],> 100 µM
same,TGI,NCI-H23,>100 µM
same,GI50,SF-539; Homo sapiens,16 µM
same,CC50,SF-539; [2],57.2 µM
same,TGI,SF-539,30.2 µM
same,TGI,COLO 205,36.3 µM
same,GI50,COLO 205; Homo sapiens,17 µM
same,CC50,COLO 205; [2],77.6 µM
COc1cc(CNc2ccc(C(=O)OC(C)(C)C)cc2)cc(CN2CCN(c3ccccn3)CC2)c1O [Compound Q012145T],GI50,RXF 393; Homo sapiens,80.3 µM
same,GI50,UACC-62; Homo sapiens,74.5 µM
same,GI50,MDA-MB-435; Homo sapiens,60.1 µM
same,GI50,SK-MEL-2; Homo sapiens,> 100 µM
same,GI50,ACHN; Homo sapiens,> 100 µM
same,GI50,MDA-MB-231/ATCC; Homo sapiens,> 100 µM
same,GI50,"T-47D; Homo sapiens, T47D",13.1 µM
same,GI50,NCI-H226; Homo sapiens,> 100 µM
same,GI50,TK-10; Homo sapiens,70.4 µM
same,GI50,"U251; Homo sapiens, U-251",75.9 µM
same,GI50,HL-60(TB); Homo sapiens,12.4 µM
same,GI50,LOX IMVI; Homo sapiens,60.4 µM
same,Conc. of compound required for PAI-1 inhibition (result in words),wildtype human PAI-1; within the concentration range tested,No inhibition
same,GI50,SF-295; Homo sapiens,69.9 µM
same,GI50,SK-MEL-5; Homo sapiens,10.7 µM
same,GI50,EKVX; Homo sapiens,51.5 µM
same,growth and proliferation of human primary cancer cell-lines (in words),[1],inhibited growth and proliferation
same,GI50,DU-145; Homo sapiens,> 100 µM
same,GI50,SK-MEL-28; Homo sapiens,> 100 µM
same,GI50,HCT-116; Homo sapiens,15.2 µM
same,GI50,NCI-H23; Homo sapiens,51.6 µM
same,GI50,SF-539; Homo sapiens,> 100 µM
same,GI50,COLO 205; Homo sapiens,24.8 µM

# Reference: patent US20080280920A1, “Plasminogen Activator Inhibitor-1 Inhibitors” (priority 2005, published 2008)
